18 molecules from patent US20180250303A1, “TGF BETA RECEPTOR ANTAGONISTS” (BRISTOL-MYERS SQUIBB COMPANY, priority 2015, published 2018) can be followed below.

One assay has as its target T1, HIS-TGFβR1 T204D (Homo sapiens, UniProt P36897, T204D).
T1 sequence (P36897 34-503 T204D): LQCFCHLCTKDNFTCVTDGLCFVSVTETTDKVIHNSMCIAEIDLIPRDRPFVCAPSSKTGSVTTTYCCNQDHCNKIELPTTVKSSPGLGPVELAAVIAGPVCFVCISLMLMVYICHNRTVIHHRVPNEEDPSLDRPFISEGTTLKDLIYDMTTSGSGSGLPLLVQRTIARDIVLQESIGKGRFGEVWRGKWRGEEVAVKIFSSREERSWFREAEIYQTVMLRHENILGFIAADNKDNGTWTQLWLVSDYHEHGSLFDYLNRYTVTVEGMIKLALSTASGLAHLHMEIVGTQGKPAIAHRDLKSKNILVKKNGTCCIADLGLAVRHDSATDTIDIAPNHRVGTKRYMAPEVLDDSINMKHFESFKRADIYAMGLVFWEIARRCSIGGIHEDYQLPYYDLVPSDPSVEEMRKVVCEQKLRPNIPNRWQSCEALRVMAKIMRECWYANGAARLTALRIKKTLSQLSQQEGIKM
The experiment in a line: HTRF probe displacement assay, TGFβR1 HIS T204D. The class given is binding. Particulars: 1 nM HIS-TGFβR1 T204D, labeled probe at Kd, 1 hour at room temperature. How it is done:
(§1) Compounds were dissolved at 10 mM in dimethylsulfoxide (DMSO) and evaluated at eleven concentrations. IC50 values were derived by non-linear regression analysis.
(Time-resolved FRET reads energy transfer from a long-lived donor to a nearby acceptor.)

Another assay has as its target HIS-TGFβR2 WT (Homo sapiens, UniProt P37173). The experiment in a line: HTRF probe displacement assay, TGFβR2 HIS WT. The class given is binding. The settings on record: 1 nM HIS-TGFβR2 WT, labeled probe at Kd, 1 hour at room temperature. How it is done: as §1

What is called IC50 is the concentration needed to halve the response being measured. Read a high IC50 as lower potency.

Each structure is given as a SMILES string. Some results are limits rather than exact numbers.

Sequence of HIS-TGFβR2 WT (P37173 23-567): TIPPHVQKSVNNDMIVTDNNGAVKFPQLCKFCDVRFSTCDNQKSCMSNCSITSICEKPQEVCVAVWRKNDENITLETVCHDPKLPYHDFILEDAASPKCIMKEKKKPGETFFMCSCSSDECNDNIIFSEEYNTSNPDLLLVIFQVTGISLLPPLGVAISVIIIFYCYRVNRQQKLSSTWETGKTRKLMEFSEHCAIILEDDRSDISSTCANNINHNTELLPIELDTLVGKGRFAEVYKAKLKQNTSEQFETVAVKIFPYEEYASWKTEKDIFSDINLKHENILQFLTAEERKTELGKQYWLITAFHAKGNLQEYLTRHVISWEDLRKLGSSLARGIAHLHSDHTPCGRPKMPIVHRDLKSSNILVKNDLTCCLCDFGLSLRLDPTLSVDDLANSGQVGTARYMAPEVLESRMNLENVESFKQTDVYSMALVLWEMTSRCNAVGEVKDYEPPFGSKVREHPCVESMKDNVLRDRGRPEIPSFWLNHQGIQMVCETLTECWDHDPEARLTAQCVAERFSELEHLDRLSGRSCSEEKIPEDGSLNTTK

As to `Fc1cnccc1Nc1nc(-c2cccc(C(F)F)n2)nc2[nH]cnc12` [Example 2, 2-(6-(difluoromethyl)pyridin-2-yl)-N-(3-fluoropyridin-4-yl)-9H-Purin-6-amine], the results for the IC50 at HIS-TGFβR1 T204D and on HIS-TGFβR2 WT were 0.41 nM and 3100 nM, respectively.

For the molecule `Fc1cnccc1Nc1nc(-c2cccc(C(F)(F)F)n2)nc2[nH]cnc12` [Example 3, N-(3-fluoropyridin-4-yl)-2-(6-(trifluoromethyl)pyridin-2-yl)-9H-Purin-6-amine], the IC50 was 1.1 nM at HIS-TGFβR1 T204D and greater than 15000 nM at HIS-TGFβR2 WT.

As for `Cc1nc(-c2nc(Nc3ccncc3F)c3nc[nH]c3n2)ccc1F` [Example 5, 2-(5-fluoro-6-methylpyridin-2-yl)-N-(3-fluoropyridin-4-yl)-9H-Purin-6-amine], the IC50 on HIS-TGFβR1 T204D was 0.36 nM; at HIS-TGFβR2 WT, 2800 nM.

For `CC(=O)Nc1cc(Nc2nc(-c3cccc(C)n3)nc3[nH]cnc23)ccn1` [Example 6, N-(4-((2-(6-methylpyridin-2-yl)-9H-Purin-6-yl)amino)pyridin-2-yl)acetamide], the IC50 at HIS-TGFβR1 T204D was found to be 0.36 nM; at HIS-TGFβR2 WT it was 440 nM.

With `CC(=O)Nc1cc(Nc2nc(-c3cccc(C(F)F)n3)nc3[nH]cnc23)ccn1` [Example 7, N-(4-((2-(6-(difluoromethyl)pyridin-2-yl)-9H-Purin-6-yl)amino)pyridin-2-yl)acetamide], the IC50 came to 0.72 nM at HIS-TGFβR1 T204D and 520 nM on HIS-TGFβR2 WT.

For `CC(=O)Nc1cc(Nc2nc(-c3cccc(C(F)(F)F)n3)nc3[nH]cnc23)ccn1` [Example 8, N-(4-((2-(6-(trifluoromethyl)pyridin-2-yl)-9H-Purin-6-yl)amino)pyridin-2-yl)acetamide], the IC50 at HIS-TGFβR2 WT is 1300 nM.

For the molecule `CC(=O)Nc1cc(Nc2nc(-c3ccccn3)nc3[nH]cnc23)ccn1` [Example 9, N-(4-((2-(pyridin-2-yl)-9H-Purin-6-yl)amino)pyridin-2-yl)acetamide], the IC50 on HIS-TGFβR1 T204D worked out at 0.9 nM; at HIS-TGFβR2 WT, 140 nM.

In the case of `CC(=O)Nc1nccc(Nc2nc(-c3cccc(C(F)(F)F)n3)nc3[nH]cnc23)c1F` [Example 12, N-(3-fluoro-4-((2-(6-(trifluoromethyl)pyridin-2-yl)-9H-Purin-6-yl)amino)pyridin-2-yl)acetamide], the results for the IC50 on HIS-TGFβR1 T204D and on HIS-TGFβR2 WT were 8.9 nM and greater than 15000 nM, respectively.

On to `CC(=O)Nc1cc(Nc2nc(-c3cccc(C(F)(F)F)n3)nc3[nH]c(C)nc23)ccn1` [Example 14, N-(4-((8-methyl-2-(6-(trifluoromethyl)pyridin-2-yl)-9H-Purin-6-yl)amino)pyridin-2-yl)acetamide], for which the IC50 is 1.6 nM on HIS-TGFβR1 T204D and greater than 15000 nM on HIS-TGFβR2 WT.

As for `CC(=O)Nc1cc(Nc2nc(-c3cccc(C(F)(F)F)n3)nc3[nH]c(C)nc23)c(F)cn1` [Example 15, N-(5-fluoro-4-((8-methyl-2-(6-(trifluoromethyl)pyridin-2-yl)-9H-Purin-6-yl)amino)pyridin-2-yl)acetamide], the IC50 at HIS-TGFβR1 T204D is 51 nM; at HIS-TGFβR2 WT it was greater than 15000 nM.

In the case of `Cc1nc2c(Nc3ccncc3F)nc(-c3cccc(C(F)(F)F)n3)nc2[nH]1` [Example 16, N-(3-fluoropyridin-4-yl)-8-methyl-2-(6-(trifluoromethyl)pyridin-2-yl)-9H-Purin-6-amine], the IC50 on HIS-TGFβR1 T204D was 5.3 nM; at HIS-TGFβR2 WT, greater than 15000 nM.

For `CC(=O)Nc1cc(Nc2nc(-c3cccc(C(F)(F)F)n3)nc3[nH]c(C4CC4)nc23)ccn1` [Example 17, N-(4-((8-cyclopropyl-2-(6-(trifluoromethyl)pyridin-2-yl)-9H-Purin-6-yl)amino)pyridin-2-yl)acetamide], the IC50 at HIS-TGFβR1 T204D is 1.6 nM; at HIS-TGFβR2 WT, greater than 15000 nM.

Turning to `COC(=O)Nc1cc(Nc2nc(-c3cccc(C(F)(F)F)n3)nc3[nH]cnc23)ccn1` [Example 19, Methyl (4-((2-(6-(trifluoromethyl)pyridin-2-yl)-9H-purin-6-yl)amino)pyridin-2-yl)carbamate], the IC50 was 2 nM at HIS-TGFβR1 T204D and greater than 15000 nM at HIS-TGFβR2 WT.

Regarding `O=C(Nc1cc(Nc2nc(-c3cccc(C(F)(F)F)n3)nc3[nH]cnc23)ccn1)C1CC1` [Example 20, N-(4-((2-(6-(trifluoromethyl)pyridin-2-yl)-9H-purin-6-yl)amino)pyridin-2-yl)cyclopropanecarboxamide], the IC50 at HIS-TGFβR1 T204D was 0.56 nM; at HIS-TGFβR2 WT, 470 nM.

As to `COCC(=O)Nc1cc(Nc2nc(-c3cccc(C(F)(F)F)n3)nc3[nH]cnc23)ccn1` [Example 21, 2-methoxy-N-(4-((2-(6-(trifluoromethyl)pyridin-2-yl)-9H-purin-6-yl)amino)pyridin-2-yl)acetamide], the IC50 is 0.45 nM at HIS-TGFβR1 T204D and greater than 15000 nM on HIS-TGFβR2 WT.

Consider `COCCC(=O)Nc1cc(Nc2nc(-c3cccc(C(F)(F)F)n3)nc3[nH]cnc23)ccn1` [Example 22, 3-methoxy-N-(4-((2-(6-(trifluoromethyl)pyridin-2-yl)-9H-purin-6-yl)amino)pyridin-2-yl)propanamide], for which the IC50 at HIS-TGFβR1 T204D was 1.1 nM; on HIS-TGFβR2 WT, greater than 15000 nM.

`O=C(CCC(F)(F)F)Nc1cc(Nc2nc(-c3cccc(C(F)(F)F)n3)nc3[nH]cnc23)ccn1` [Example 23, 4,4,4-trifluoro-N-(4-((2-(6-(trifluoromethyl)pyridin-2-yl)-9H-purin-6-yl)amino)pyridin-2-yl)butanamide]: the IC50 on HIS-TGFβR1 T204D is 0.48 nM; at HIS-TGFβR2 WT, greater than 15000 nM.

Regarding `CC(=O)Nc1cc(Nc2nc(-c3ccc(F)c(C)n3)nc3[nH]cnc23)ccn1` [Example 24, N-(4-((2-(5-fluoro-6-methylpyridin-2-yl)-9H-purin-6-yl)amino)pyridin-2-yl)acetamide], the IC50 at HIS-TGFβR1 T204D came to 0.34 nM; at HIS-TGFβR2 WT it was 290 nM.
